Experimental data published in US20080255150A1, “Novel Compounds” (ASTRAZENECA AB, priority 2005, published 2008).

biological target: T1, rhCRTh2 (Homo sapiens, UniProt Q9Y5Y4); assay: Ligand binding assay, [3H]PGD2 SPA on HEK cell membranes; conditions: [3H]PGD2 displacement; membranes of HEK cells expressing rhCRTh2/Gα16; SPA beads; 2 h at RT; read-out: pIC50 value (converted)
T1 construct: expressed in transfected cells; expression induced with sodium butyrate; membrane preparation
T1 sequence (Q9Y5Y4 1-395): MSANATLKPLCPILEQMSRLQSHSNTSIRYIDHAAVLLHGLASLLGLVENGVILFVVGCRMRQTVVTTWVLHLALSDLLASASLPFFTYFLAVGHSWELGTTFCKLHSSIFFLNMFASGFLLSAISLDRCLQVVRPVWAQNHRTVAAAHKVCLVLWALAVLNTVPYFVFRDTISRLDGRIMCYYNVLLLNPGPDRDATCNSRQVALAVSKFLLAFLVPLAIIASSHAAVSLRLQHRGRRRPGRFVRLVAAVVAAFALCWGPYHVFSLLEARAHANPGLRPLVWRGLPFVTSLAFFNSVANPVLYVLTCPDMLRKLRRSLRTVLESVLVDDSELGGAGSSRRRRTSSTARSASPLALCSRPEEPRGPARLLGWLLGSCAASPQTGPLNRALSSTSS
Protocol: [^3H]PGD2 was purchased from Perkin Elmer Life Sciences with a specific activity of 100-210 Ci/mmol. All other chemicals were of analytical grade.
HEK cells expressing rhCRTh2/Gα16 were routinely maintained in DMEM containing 10% Foetal Bovine Serum (HyClone), 1 mg/ml geneticin, 2 mM L-glutamine and 1% non-essential amino acids. For the preparation of membranes, the adherent transfected HEK cells were grown to confluence in two layer tissue culture factories (Fisher, catalogue number TKT-170-070E). Maximal levels of receptor expression were induced by addition of […] sodium butyrate for the last 18 h of culture. The adherent cells were washed once with phosphate buffered saline (PBS, 50 ml per cell factory) and detached by the addition of 50 ml per cell factory of ice-cold membrane homogenisation buffer [20 mM HEPES (pH 7.4), 0.1 mM dithiothreitol, 1 mM EDTA, 0.1 mM phenyl methyl sulphonyl fluoride and 100 μg/ml bacitracin]. […] The final pellet was re-suspended in 4 ml of membrane homogenisation buffer per cell factory used and the protein content determined. […]
All assays were performed in Corning clear bottomed, white 96-well NBS plates (Fisher). […] (The optimum coating concentrations were determined for each batch of membranes) The beads were pelleted by centrifugation (800×g for 7 minutes at 4° C.), washed once with assay buffer (50 mM HEPES pH 7.4 containing 5 mM magnesium chloride) and finally re-suspended in assay buffer at a bead concentration of 10 mg/ml.
Each assay contained 20 μl of 6.25 nM [^3H]PGD2, 20 μl membrane saturated SPA beads both in assay buffer and 10 μl of compound solution or 13,14-dihydro-15-keto prostaglandin D2 (DK-PGD2, for determination of non-specific binding, Cayman chemical company). […] The assay plate was incubated at RT for 2 h and counted on a Wallac Microbeta liquid scintillation counter (1 minute per well).

Compound | IC50
C[C@H]1CN(Cc2cc(Cl)ccc2CCC(=O)O)CCN1C(=O)Cc1ccccc1 [Example 4, 3-(4-chloro-2-{[(3S)-3-methyl-4-(phenylacetyl)piperazin-1-yl]methyl}phenyl)propanoic acid] | 0.0794 µM
C[C@H]1CN(Cc2cc(Cl)ccc2CC(=O)O)CCN1S(=O)(=O)c1ccccc1 [Example 9, (4-chloro-2-{[(3S)-3-methyl-4-(phenylsulfonyl)piperazin-1-yl]methyl}phenyl)acetic acid] | 0.0141 µM
C[C@H]1CN(Cc2cc(Cl)ccc2CC(=O)O)CCN1C(=O)Cc1ccc(F)cc1F [Example 12, [4-chloro-2-({(3S)-4-[(2,4-difluorophenyl)acetyl]-3-methylpiperazin-1-yl}methyl)phenyl]acetic acid] | 0.00794 µM
